Assays:
[1] = tested on: Puccinia recondita f. Sp. Tritici; assay: Puccinia recondita f. sp. tritici / wheat / leaf disc preventative (brown rust); format: in vivo; details: foliar, 200 ppm in the applied formulation, wheat leaf segments cv. Kanzler, inoculated 1 day after application, assessed 7 to 9 days after application, read-out: disease control
Experimental: Leaf disks or leaf segments of various plant species are cut from plants grown in a greenhouse. The cut leaf disks or segments are placed in multiwell plates (24-well format) onto water agar. The leaf disks are sprayed with a test solution before (preventative) or after (curative) inoculation. Compounds to be tested are prepared as DMSO solutions (max. 10 mg/ml) which are diluted to the appropriate concentration with 0.025% Tween20 just before spraying. The inoculated leaf disks or segments are incubated under defined conditions (temperature, relative humidity, light, etc.) according to the respective test system. A single evaluation of disease level is carried out 3 to 14 days after inoculation, depending on the pathosystem. Percent disease control relative to the untreated check leaf disks or segments is then calculated. Wheat leaf segments cv. Kanzler were placed on agar in multiwell plates (24-well format) and sprayed with the formulated test compound diluted in water. The leaf disks were inoculated with a spore suspension of the fungus 1 day after application. The inoculated leaf segments were incubated at 19° C. and 75% relative humidity (rh) under a light regime of 12 hours light/12 hours darkness in a climate cabinet and the activity of a compound was assessed as percent disease control compared to untreated when an appropriate level of disease damage appears in untreated check leaf segments (7 to 9 days after application). The following compounds at 200 ppm in the applied formulation give at least 80% disease control in this test when compared to untreated control leaf disks under the same conditions, which show extensive disease development.

[2] = tested on: Glomerella lagenarium (Colletotrichum lagenarium); assay: Glomerella lagenarium (Colletotrichum lagenarium) liquid culture / cucumber / preventative (anthracnose); format: cell-based; details: Colletotrichum orbiculare; 20 ppm in the applied formulation; liquid culture in PDB, 24° C., 3 to 4 days after application; read-out: disease control (inhibition of growth, photometric)
Experimental: Mycelia fragments or conidia suspensions of a fungus prepared either freshly from liquid cultures of the fungus or from cryogenic storage, are directly mixed into nutrient broth. DMSO solutions of the test compound (max. 10 mg/ml) are diluted with 0.025% Tween20 by a factor of 50 and 10 μl of this solution is pipetted into a microtiter plate (96-well format). The nutrient broth containing the fungal spores/mycelia fragments is then added to give an end concentration of the tested compound. The test plates are incubated in the dark at 24° C. and 96% relative humidity. The inhibition of fungal growth is determined photometrically after 2 to 7 days, depending on the pathosystem, and percent antifungal activity relative to the untreated check is calculated.
Conidia of the fungus from cryogenic storage are directly mixed into nutrient broth (PDB—potato dextrose broth). After placing a (DMSO) solution of test compound into a microtiter plate (96-well format), the nutrient broth containing the fungal spores is added. The test plates are incubated at 24° C. and the inhibition of growth is measured photometrically 3 to 4 days after application.
The following compounds at 20 ppm in the applied formulation give at least 80% disease control in this test when compared to untreated control under the same conditions, which show extensive disease development.

## O=C(NCc1ccccc1Cl)C(=O)c1ccc(-c2noc(C(F)(F)F)n2)s1 [Compound 1.1, N-[(2-chlorophenyl)methyl]-2-oxo-2-[5-[5-(trifluoromethyl)-1,2,4-oxadiazol-3-yl]-2-thienyl]acetamide]
[1]
  pest or weed control at 200 ppm: ≥ 80%
[2]
  inhibition at 20 ppm: ≥ 80%
other
  melting point: 94 to 95.2 °C

## COCCNC(=O)C(=O)c1ccc(-c2noc(C(F)(F)F)n2)s1 [Compound 1.2, N-(2-methoxyethyl)-2-oxo-2-[5-[5-(trifluoromethyl)-1,2,4-oxadiazol-3-yl]-2-thienyl]acetamide]
[1]
  pest or weed control at 200 ppm: ≥ 80%
[2]
  inhibition at 20 ppm: ≥ 80%
other
  melting point: 106 to 107.1 °C

## CN(C)C(=O)C(=O)c1ccc(-c2noc(C(F)(F)F)n2)s1 [Compound 1.3, N,N-dimethyl-2-oxo-2-[5-[5-(trifluoromethyl)-1,2,4-oxadiazol-3-yl]-2-thienyl]acetamide]
[1]
  pest or weed control at 200 ppm: ≥ 80%
[2]
  inhibition at 20 ppm: ≥ 80%
other
  melting point: 88.4 to 89.4 °C

## CON(C)C(=O)C(=O)c1ccc(-c2noc(C(F)(F)F)n2)s1 [Compound 1.4, N-methoxy-N-methyl-2-oxo-2-[5-[5-(trifluoromethyl)-1,2,4-oxadiazol-3-yl]-2-thienyl]acetamide]
[1]
  pest or weed control at 200 ppm: ≥ 80%
[2]
  inhibition at 20 ppm: ≥ 80%

## CONC(=O)C(=O)c1ccc(-c2noc(C(F)(F)F)n2)s1 [Compound 1.5, N-methoxy-2-oxo-2-[5-[5-(trifluoromethyl)-1,2,4-oxadiazol-3-yl]-2-thienyl]acetamide]
[1]
  pest or weed control at 200 ppm: ≥ 80%
[2]
  inhibition at 20 ppm: ≥ 80%
other
  melting point: 109.7 to 112.1 °C

## CCNC(=O)C(=O)c1ccc(-c2noc(C(F)(F)F)n2)s1 [Compound 1.6, N-ethyl-2-oxo-2-[5-[5-(trifluoromethyl)-1,2,4-oxadiazol-3-yl]-2-thienyl]acetamide]
[1]
  pest or weed control at 200 ppm: ≥ 80%
[2]
  inhibition at 20 ppm: ≥ 80%
other
  melting point: 142.7 to 144.6 °C

## CNC(=O)C(=O)c1ccc(-c2noc(C(F)(F)F)n2)s1 [Compound 1.7, N-methyl-2-oxo-2-[5-[5-(trifluoromethyl)-1,2,4-oxadiazol-3-yl]-2-thienyl]acetamide]
[1]
  pest or weed control at 200 ppm: ≥ 80%
[2]
  inhibition at 20 ppm: ≥ 80%
other
  melting point: 96.2 to 98.7 °C

## O=C(NC1CC1)C(=O)c1ccc(-c2noc(C(F)(F)F)n2)s1 [Compound 1.8, N-cyclopropyl-2-oxo-2-[5-[5-(trifluoromethyl)-1,2,4-oxadiazol-3-yl]-2-thienyl]acetamide]
[1]
  pest or weed control at 200 ppm: ≥ 80%
[2]
  inhibition at 20 ppm: ≥ 80%
other
  melting point: 122.1 to 126.7 °C

— patent US20210269426A1, “MICROBIOCIDAL OXADIAZOLE DERIVATIVES” (SYNGENTA CROP PROTECTION AG, priority 2018, published 2021)
